Test results: patent publication US20240165274A1, “METHODS OF DETECTING SYSTEMIC AMYLOIDOSIS VIA BINDING TO MISFOLDED OR AGGREGATED PROTEIN” (Amydis, Inc., priority 2021, published 2024)

Experiments:
[1] = system: TTR deposits in human tissues; assay: Staining of FFPE human tissue sections with vitreous amyloid, co-stained with TTR antibody; conditions: compound 60 μM, 30 minutes; adjacent sections stained with Congo red and H&E; present-tense example, binding 'contemplated'
Procedure: The following protocol was adopted for staining Formalin-Fixed Paraffin Embedded (FFPE) tissues: • 1. Deparaffinization and hydration of tissue sections: • Pre-heat @ 60° C. 1 hour • Place slides in holders and treat with the clearing agent xylene (paraffin solvent) and a series of graded ethanol (EtOH) as follows: • i. 100% xylene—5 min • ii. 100% xylene—5 min • iii. 50%/50% xylene/100% EtOH—3 min • iv. 100% EtOH—3 min • v. 95% EtOH—3 min • vi. 70% EtOH—3 min • vii. 50% EtOH—3 min • viii. Water—2×3 min. • 2. Antigen retrieval: incubate in 99% formic acid for 5 minutes. • 3. Wash with distilled water for 5 minutes. Repeat this step two times. • 4. Pre-heat 10 mM citrate buffer pH 6.0 to boiling. • 5. Place slides in staining chamber with heated citrate buffer for 20 minutes. • 6. Cool in water bath. Wash with distilled water for 5 minutes. Repeat this step two times. • 7. […]
Sections from tissues of vitreous amyloid with known TTR mutation (paraffin embedded tissue blocks) and an autopsy eyeball with vitreous amyloid (paraffin embedded organ) are respectively stained with hematoxylin and eosin (H&E) and Congo red to mark regions with amyloidosis. […] It is contemplated that Compound 1 binds to TTR deposits in human tissues and undergoes an increase in fluorescence emission in a manner similar to its increase in fluorescence in vitro in the presence of aggregated TTR as described in earlier examples.

aggregated TTR [2] = molecular target: T1, aggregated TTR (Homo sapiens, UniProt P02766); assay: Binding affinity for Compound 1 with aggregated TTR (fluorescence titration, one site specific binding); conditions: 5 μM TTR, 4% DMSO/PBS pH 7.4; Compound 1 0 to 10 μM; RFI at λmax(em); FIG. 2
Procedure: A solution of DMSO/PBS (6 μL DMSO in 144 μL PBS, pH 7.4) was prepared as a blank control. Further, a 250 μM solution of Compound 1 in DMSO was prepared. The following samples were then prepared in triplicate while keeping a constant 5 μM TTR concentration in 4% DMSO/PBS:
Emission spectra were taken for each sample and adjusted against the blank over the range of 445-700 nm. RFI at λmax(em) was determined for each sample. RFI was then plotted against the increasing concentration of Compound 1 over the range of 0 to 10 μM using a one site specific binding algorithm. The binding affinity (Kd) was determined to be 0.3+/−0.1 μM. This is illustrated in FIG. 2.

aggregated TTR [3] = molecular target: T1, aggregated TTR; assay: Fluorescence spectra of Compound 1 with TTR aggregates; conditions: excitation 440 nm; for Fluorescence fold increase: Compound 1 4 μM, emission 565 nm, RFI over Compound 1 alone
Procedure: Several aggregated TTR samples were prepared using different conditions as described below. • Aggregate A was prepared by resuspending TTR in 50 mM glycine buffer at a pH of about 3.6 and further incubating the same for 24 hours at room temperature. • Aggregate B1 was prepared by resuspending TTR in water at a pH of about 7.4, and further incubating the same for 7 days with stirring (200 rpm) maintained at 37° C. • Aggregate B2 was prepared by resuspending TTR in water at a pH of about 7.4, and further incubating the same for 14 days with stirring (200 rpm) maintained at 37° C.
Compound 1 (4 μM) was prepared with or without Aggregate B1 in 1× phosphate-buffered saline (PBS). The absorption, fluorescence, and excitation spectra were taken for both samples. The excitation wavelength was optimized to be 440 nm. The emission spectra thus received were adjusted against a blank solvent control to obtain relative fluorescence intensity (RFI) as a function of wavelengths.
Further, fluorescence spectra were taken on mixtures of Compound I (4 μM) with Aggregate A, B1, or B2, respectively, each at the concentration of 5 μM, at the emission wavelength of 565 nm, when excited at 440 nm. The increases in RFI over Compound 1 alone were calculated and are illustrated in Table 1: […]

- Kd (aggregated TTR [2]): 300 nM
- Fluorescence fold increase (aggregated TTR [3]; Aggregate A 5 μM): 4.6 fold
- Fluorescence fold increase (aggregated TTR [3]; Aggregate B1 5 μM): 2.3 fold
- Fluorescence fold increase (aggregated TTR [3]; Aggregate B2 5 μM): 2.5 fold
- increase of relative fluorescence intensity (RFI) in presence of aggregate (aggregated TTR [3]; Compound 1 4 μM with vs without Aggregate B1 in 1× PBS, FIG. 1): about 3.2
SMILES: COCCOCCOCCOC(=O)/C(C#N)=C/c1ccc2cc(N3CCCCC3)ccc2c1 [Compound 1]
- regions of hyperfluorescence versus areas of amyloidosis [1]: correspond to areas of amyloidosis defined using Congo Red and H&E stains
